In article PMC3416781, “Functional Characterizations of Chemosensory Proteins of the Alfalfa Plant Bug Adelphocoris lineolatus Indicate Their Involvement in Host Recognition” (PLoS ONE, 2012):
Several values for one entry are separate records, joined by “and”; a condition that tells them apart may be missing. Identical values can stand only once. Like-named read-outs stand apart in the source and are kept apart here.

Experiments:
AlinCSP1 = AlinCSP1 (Adelphocoris lineolatus, UniProt J7EJ71); test: biochemical; assay type: binding
Protocol: (§1) Fluorescence binding assays were performed on an F-380 fluorescence spectrophotometer (Tianjin, China) in a 1 cm light path quartz cuvette. The slit width used for excitation and emission was both 10 nm. The fluorescent probe N-phenyl-1-naphthylamine (1-NPN) was dissolved in methanol with a 1 mM stock solution. 1-NPN was excited at 337 nm and emission spectra were recorded between 390 nm and 530 nm.
(§2) All values reported were obtained from three independent measurements.
(§3) For determining binding constants, the intensity values corresponding to the maximum fluorescence emission were plotted against free ligand concentration. Bound ligand was evaluated from the values of fluorescence intensity assuming the protein was 100% active, with a stoichiometry of 1∶1 protein:ligand at saturation. The curves were linearized using Scatchard Plot.

AlinCSP2 = AlinCSP2 (Adelphocoris lineolatus, UniProt E7BLG5); test: biochemical; assay type: binding
Protocol: as §1, §2, §3

AlinCSP3 = AlinCSP3 (Adelphocoris lineolatus, UniProt E7BLG4); test: biochemical; assay type: binding
Protocol: as §1, §2, §3

A. lineolatus antennae = test: Electroantennogram (EAG) recordings; set-up: species or system Adelphocoris lineolatus; conditions: normalized to 2-octanone; for EAG response, male versus female antennae: Student t-test between sexes
From the text: Electrophysiological (EAG) recordings from each sex of adult individuals were made using Ag-AgCl glass pipette electrodes filled with 3 M KCl solution [69], [70]. The insects were anaesthetized by chilling, the antenna was amputated at the base and the tip of the antenna was cut off. The excised antenna was mounted between the electrodes by one teardrop of Spectra R360 electrically conductive gel (Syntech, Netherlands). The base of the antenna was connected to the reference electrode, while the terminal of tip-cut off antenna was connected to the recording electrode. An air stimulus controller CS-55 (Syntech, Netherlands) was used for air and chemical stimulants delivery with a constant flow of 10 ml/second flowed continuously over the antenna through the open end of the glass tube, which was positioned 1 cm from the antenna.
Twenty microliters of tested chemicals (100 µl/ml, 10% (v/v) dilution in paraffin oil except the hexadecanoic acid dissolved in hexane with 100 µg/ml) were applied to filter paper strips (1.5 cm×4 cm, Whatman No.1), and the solvent was allowed to evaporate for 30 sec before the paper strip was inserted into the glass Pasteur pipette cartridge (10 cm long, Fisher Scientific, Pittsburgh, Pennsylvania, USA). The chemicals were tested randomly, stimulus duration time was 0.5 second and an interval of at least 30 seconds was taken between stimulations for antennal recovery. Chemical odorants used for the EAG recordings are the same as used in the binding assays. […] The paraffin oil (Fluka, Buchs, Switzerland) was used to dissolve the chemicals and treated as control compound [71]. Each chemical was tested against six individual male and female antennae, and each antenna was tested three times. The signals were passed through a high impedance amplifier (CS-05 model, Syntech, the Netherlands), EAG responses were initially measured in millivolts (peak height of depolarization) and then converted to normalized responses by the Syntech EAG 2000 program (Syntech, the Netherlands). Response to the solvent control was subtracted from all normalized response and the normalized EAG responses were expressed as a percentage to the reference compound response. All results are presented as mean (±SE) normalized EAG responses. EAG responses between male and female individuals were compared with the Student t-test using SAS software.

[1] = u.d. = KD not calculated because IC50>50 µM, read-out: KD (µM) AlinCSP1, given as u.d.
[2] = u.d. = KD not calculated because IC50>50 µM, read-out: KD (µM) AlinCSP2, given as u.d.
[3] = 1-NPN and protein at 2 µM, 50 mM Tris-HCl pH 7.4, KD calculated from IC50, mean of three measurements, read-out: KD (µM) AlinCSP3
[4] = 1-NPN and protein at 2 µM, 50 mM Tris-HCl pH 7.4, KD calculated from IC50, mean of three measurements, read-out: KD (µM) AlinCSP1
[5] = 1-NPN and protein at 2 µM, 50 mM Tris-HCl pH 7.4, KD calculated from IC50, mean of three measurements, read-out: KD (µM) AlinCSP2
[6] = KD (µM) AlinCSP1, 1-NPN and protein at 2 µM, 50 mM Tris-HCl pH 7.4, KD calculated from IC50, mean of three measurements
[7] = KD (µM) AlinCSP2, 1-NPN and protein at 2 µM, 50 mM Tris-HCl pH 7.4, KD calculated from IC50, mean of three measurements
[8] = KD (µM) AlinCSP3, 1-NPN and protein at 2 µM, 50 mM Tris-HCl pH 7.4, KD calculated from IC50, mean of three measurements
[9] = u.d. = KD not calculated because IC50>50 µM, read-out: KD (µM) AlinCSP3, given as u.d.
[10] = KD (µM) AlinCSP1, given as u.d., u.d. = KD not calculated because IC50>50 µM
[11] = KD (µM) AlinCSP2, given as u.d., u.d. = KD not calculated because IC50>50 µM

Sequence of AlinCSP3 (E7BLG4 entry or part of it): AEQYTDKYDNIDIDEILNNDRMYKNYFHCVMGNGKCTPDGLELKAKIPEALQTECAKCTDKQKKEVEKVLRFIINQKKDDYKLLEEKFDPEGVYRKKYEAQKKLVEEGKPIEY
Sequence of AlinCSP1 (J7EJ71 entry or part of it): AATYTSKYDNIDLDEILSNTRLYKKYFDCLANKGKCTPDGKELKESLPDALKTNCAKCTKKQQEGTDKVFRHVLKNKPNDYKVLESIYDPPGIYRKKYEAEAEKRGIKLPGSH
Sequence of AlinCSP2 (E7BLG5 entry or part of it): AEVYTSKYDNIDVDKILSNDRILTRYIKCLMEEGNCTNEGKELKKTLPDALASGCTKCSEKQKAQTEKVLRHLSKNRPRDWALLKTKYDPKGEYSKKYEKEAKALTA

Q: What does the source list for `CCCCCCCCCCCCCC` [Tetradecane]?
A: Kd (AlinCSP1; [1]): > 50 µM; Kd (AlinCSP2; [2]): > 50 µM; Kd (AlinCSP3; [3]): 46.2 ± 2.76 µM

Q: With `C=C/C(C)=C\CC=C(C)C` [(Z)−ocimene] as the compound, how does the Kd (AlinCSP1; [4]) read?
A: Its Kd is 28.6 ± 1.71 µM.

Q: What about the Kd (AlinCSP2; [5]) of the same compound?
A: The Kd was 25.1 ± 0.93 µM.

Q: What about the Kd (AlinCSP3; [3]) of the same compound?
A: Its Kd is 22.2 ± 1.01 µM.

Q: How did the Kd (AlinCSP1; [4]) turn out when `C=CC(C)(O)CCC=C(C)CCC=C(C)C` (mixture of isomers) [Nerolidol] was run?
A: The Kd was 28.1 ± 1.26 µM.

Q: What about the Kd (AlinCSP2; [5]) of the same compound?
A: Its Kd is 24.4 ± 1.36 µM.

Q: And the Kd (AlinCSP3; [3])?
A: Its Kd is 22.4 ± 1.33 µM.

Q: Which results are given for `CCCCCCC(=O)OCC` [Ethyl heptanoate]?
A: Kd (AlinCSP1; [4]): 25.3 µM and 43.2 µM; Kd (AlinCSP2; [5]): 45.3 µM and 38.3 µM; Kd (AlinCSP3; [3]): 38.3 µM and 35.3 µM

Q: What does the source list for `CCCCCCC(C)=O` [2-Octanone]?
A: Kd (AlinCSP1; [1]): > 50 µM; Kd (AlinCSP2; [2]): > 50 µM; Kd (AlinCSP3; [3]): 39.5 ± 1.91 µM

Q: Which Kd (AlinCSP1; [6]) does the source give for `C=C1CCC2CC1C2(C)C` (stereo not drawn) [β-Pinene] here?
A: The Kd was 7.07 ± 1.41 µM.

Q: What about the Kd (AlinCSP2; [7]) of the same compound?
A: The Kd was 11.1 ± 1.91 µM.

Q: What about the Kd (AlinCSP3; [8]) of the same compound?
A: Its Kd is 12.4 ± 2.09 µM.

Q: And the “EAG response in words” value (A. lineolatus antennae; male and female adult antennae, 10% (v/v) in paraffin oil, good ligand = more than 50% of 2-octanone response)?
A: The value was “failed to elicit high EAG response”.

Q: For `CCCCC(CC)CO` (stereo not drawn) [2-Ethyl-1-hexanol], which Kd (AlinCSP1; [1]) is on record?
A: Its Kd is over 50 µM.

Q: What about the Kd (AlinCSP2; [2]) of the same compound?
A: Its Kd is over 50 µM.

Q: And the Kd (AlinCSP3; [9])?
A: The Kd was over 50 µM.

Q: With `CC1=CC=C(C(C)C)CC1` [α-Terpinene] as the compound, how does the Kd (AlinCSP1; [10]) read?
A: The Kd was over 50 µM.

Q: What about the Kd (AlinCSP2; [11]) of the same compound?
A: Its Kd is over 50 µM.

Q: What about the Kd (AlinCSP3; [8]) of the same compound?
A: The Kd was 45.5 ± 2.06 µM.

Q: Which Kd (AlinCSP1; [6]) does the source give for `CCCCOC(C)=O` [Butyl acetate] here?
A: Its Kd is 26.6 ± 1.87 µM.

Q: And the Kd (AlinCSP2; [7])?
A: The Kd was 41.2 ± 2.89 µM.

Q: And the Kd (AlinCSP3; [8])?
A: Its Kd is 34.5 ± 2.79 µM.

Q: How did the Kd (AlinCSP1; [4]) turn out when `CCCCCCCCCOC(C)=O` [Nonyl acetate] was run?
A: The Kd was 23.6 ± 1.6 µM.

Q: What about the Kd (AlinCSP2; [5]) of the same compound?
A: The Kd was 29.2 ± 2.19 µM.

Q: And the Kd (AlinCSP3; [3])?
A: The Kd was 46.5 ± 3.07 µM.

Q: What does the source list for `O=Cc1ccccc1` [Benzaldehyde]?
A: Kd (AlinCSP1; [6]): 27.5 ± 1.96 µM; Kd (AlinCSP2; [7]): 28 ± 2.11 µM; Kd (AlinCSP3; [8]): 24 ± 1.76 µM

Q: What does the source list for `c1ccc2[nH]ccc2c1` [Indole]?
A: Kd (AlinCSP1; [6]): 27.1 ± 1.91 µM; Kd (AlinCSP2; [7]): 22.4 ± 2.01 µM; Kd (AlinCSP3; [8]): 24.6 ± 2.16 µM

Q: Which results are given for `C=C(C)[C@H]1CC=C(C)CC1` [Limonene]?
A: Kd (AlinCSP1; [1]): > 50 µM; Kd (AlinCSP2; [2]): > 50 µM; Kd (AlinCSP3; [9]): > 50 µM

Q: With `CCCCCCCC` [Octane] as the compound, how does the Kd (AlinCSP1; [4]) read?
A: Its Kd is 42.1 ± 1.42 µM.

Q: And the Kd (AlinCSP2; [5])?
A: Its Kd is 44.4 ± 1.36 µM.

Q: And the Kd (AlinCSP3; [3])?
A: The Kd was 45.4 ± 1.54 µM.

Q: What about the “EAG response, male versus female antennae” value (A. lineolatus antennae) of the same compound?
A: The value was “significantly higher EAG responses from male antennae than from female antennae”.

Q: Which Kd (AlinCSP1; [4]) does the source give for `CCCCC(C)O` (stereo not drawn) [2-Hexanol] here?
A: The Kd was 45.4 ± 2.43 µM.

Q: What about the Kd (AlinCSP2; [2]) of the same compound?
A: Its Kd is over 50 µM.

Q: What about the Kd (AlinCSP3; [3]) of the same compound?
A: Its Kd is 37.1 ± 1.01 µM.

Q: What about the “EAG response, male versus female antennae” value (A. lineolatus antennae) of the same compound?
A: The value was “significantly higher EAG responses from female antennae than from male antennae”.

Q: With `CCCCCCCCCCCC=O` [Dodecanal] as the compound, how does the Kd (AlinCSP1; [1]) read?
A: The Kd was over 50 µM.

Q: What about the Kd (AlinCSP2; [2]) of the same compound?
A: Its Kd is over 50 µM.

Q: What about the Kd (AlinCSP3; [9]) of the same compound?
A: The Kd was over 50 µM.

Q: `CCCCC/C=C\CCO` [(Z)-3-Nonen-1-ol] was tested. Which Kd (AlinCSP1; [4]) did it give?
A: The Kd was 21.5 ± 1.17 µM.

Q: And the Kd (AlinCSP2; [5])?
A: Its Kd is 26.4 ± 1.87 µM.

Q: And the Kd (AlinCSP3; [3])?
A: Its Kd is 25.5 ± 1.67 µM.

Q: Which results are given for `CCCCOC(=O)CCC` [Butyl butyrate]?
A: Kd (AlinCSP1; [1]): > 50 µM; Kd (AlinCSP2; [2]): > 50 µM; Kd (AlinCSP3; [9]): > 50 µM

Q: `Cc1cccc(C(=O)O)c1C` [2,3-Dimethylbenzoic acid] was tested. Which Kd (AlinCSP1; [1]) did it give?
A: The Kd was over 50 µM.

Q: What about the Kd (AlinCSP2; [2]) of the same compound?
A: The Kd was over 50 µM.

Q: And the Kd (AlinCSP3; [9])?
A: Its Kd is over 50 µM.

Q: Which Kd (AlinCSP1; [6]) does the source give for `CC1(C)[C@@H]2CC[C@@]1(C)[C@H](O)C2` (racemic) [Isoborneol] here?
A: The Kd was 24.2 ± 1.42 µM.

Q: What about the Kd (AlinCSP2; [7]) of the same compound?
A: The Kd was 21.1 ± 2.04 µM.

Q: And the Kd (AlinCSP3; [8])?
A: Its Kd is 28.6 ± 1.68 µM.

Q: Which results are given for `CCCCCCCCC=O` [Nonanal]?
A: Kd (AlinCSP1; [4]): 43.6 ± 1.11 µM; Kd (AlinCSP2; [2]): > 50 µM; Kd (AlinCSP3; [9]): > 50 µM

Q: Which Kd (AlinCSP1; [4]) does the source give for `CCCCCCOC(=O)CCCCC` [Hexyl hexanoate] here?
A: Its Kd is 44.7 ± 2.38 µM.

Q: And the Kd (AlinCSP2; [2])?
A: The Kd was over 50 µM.

Q: What about the Kd (AlinCSP3; [3]) of the same compound?
A: The Kd was 43.8 ± 1.98 µM.

Q: With (+)-α-Pinene as the compound, how does the Kd (AlinCSP1; [4]) read?
A: The Kd was 31.7 ± 0.98 µM.

Q: What about the Kd (AlinCSP2; [5]) of the same compound?
A: Its Kd is 30.6 ± 0.71 µM.

Q: What about the Kd (AlinCSP3; [3]) of the same compound?
A: The Kd was 27.2 ± 1.02 µM.

Q: For `CC(C)=CCC/C(C)=C/C=O` [Citral], which Kd (AlinCSP1; [10]) is on record?
A: The Kd was over 50 µM.

Q: What about the Kd (AlinCSP2; [11]) of the same compound?
A: The Kd was over 50 µM.

Q: What about the Kd (AlinCSP3; KD (µM) AlinCSP3, given as u.d., u.d. = KD not calculated because IC50>50 µM) of the same compound?
A: Its Kd is over 50 µM.
